Experimental data as given in patent publication EP0739343B1, “WATER SOLUBLE ONIUM SALT OF TAXO-DITERPENOID” (THE SCRIPPS RESEARCH INSTITUTE, priority 1994, dated 1995).

Key:
[1] = Critical aggregation concentration by UV absorption (optical density) at 340 nm; format: physicochemical; conditions: buffered solutions, absorption at 340 nm
[2] = Stability and taxol release in the solid state and aqueous media, assayed by HPLC; format: physicochemical
Procedure: (§1) Due to a difference in retention time using our standard HPLC conditions (see Fig. 1) and differing ultraviolet absorption maxima (1280/1254 = 1.6 for 2 and 0.3 for 1), the stability of 2 was easily assayed by HPLC (Fig. 1). […] In phosphate buffered saline (PBS) or ammonium acetate - phosphate buffer systems of pH 6.0 to 7.3, 2 is stable at 25 °C for over 21 days. Taxol-2'-MPT (2) is, however, unstable in 5% HCl (pH 1.1) and brine.
(§2) Under these conditions 20% of total is recovered. More particularly, Taxol-2'-MPT (2) was dissolved in the aqueous system with the aid of sonication for five minutes. Aliquots were then removed at the times shown and partitioned into methylene chloride to quench the reaction. Samples were then analyzed using a Waters Maxima HPLC instrument equipped with an autoinjector (3.9x300 mm C18 column equipped with a precolumn. The flow rate was 1.5 mL/minute. The eluent gradient A-B extended over 30 minutes. "A" was 80% 80mM ammonium acetate, pH 6.0. "B" was 100% methanol. An ultraviolet diode array detector was employed. The ratio of compound 2 (Rf 16.2 min.) to taxol (compound 1, Rf 16.8 min.) remaining was determined from the relative areas of the peaks after normalization with previously determined calibration curves.

[3] = Taxol release from the prodrug in plasma, methylene chloride extraction and HPLC; format: in vitro ADME, human
Procedure: as §1, §2

tubulin = assay: Tubulin (microtubule) polymerization-depolymerization measurement, turbidity at 340 nm; format: biochemical; conditions: for calcium chloride promoted depolymerization is suppressed: tubulin 1.0 mg/mL, 1.0 mM GTP, compound 10^-6 M, CaCl2 0.25 mM added after 20 minutes, 37°C
Procedure: Tubulin polymerization-depolymerization measurements are illustrate in Figure 3. Negative controls are shown with triangles; positive taxol controls are shown with diamonds; and taxol-2'-MPT, i.e., compound 2 is shown with dots.
More particularly, measurement were performed in 96 well plates at 37°C following the protocol of R. Merlock and W. Wrasidlo (Analytical Biochemistry 1993, in press). Calcium chloride addition is indicated by the arrow. In each case, 1.0 mM GTP was used to promote the initial polymerization of tubulin. Negative control employed tubulin (1.0 mg/mL) alone, CaCl2 (0,25 mM) added after 20 minutes. Positive taxol control employed tubulin (1.0 mg/mL) with taxol (10^-6M) and CaCl2 (0.25mM) added after 20 minutes. The experimental taxol-2'-MPT employed tubulin (1.0 mg/mL) with taxol-2'-MPT (10^-6) and CaCl2 (0.25 mM) added after 20 minutes. Turbidity was measured as optical density at 340 nm using a microplate reader (Molecular Devices Thermomax).

[4] = Metabolic study using the tritiated compound; format: in vivo; conditions: tritiated 2
physchem = conditions: water
albumin = albumin (Homo sapiens, UniProt P02768); conditions: serum; cited from earlier work
[5] = in water, 5% dextrose, and 1.5% saline

Chain of albumin (P02768 25-609): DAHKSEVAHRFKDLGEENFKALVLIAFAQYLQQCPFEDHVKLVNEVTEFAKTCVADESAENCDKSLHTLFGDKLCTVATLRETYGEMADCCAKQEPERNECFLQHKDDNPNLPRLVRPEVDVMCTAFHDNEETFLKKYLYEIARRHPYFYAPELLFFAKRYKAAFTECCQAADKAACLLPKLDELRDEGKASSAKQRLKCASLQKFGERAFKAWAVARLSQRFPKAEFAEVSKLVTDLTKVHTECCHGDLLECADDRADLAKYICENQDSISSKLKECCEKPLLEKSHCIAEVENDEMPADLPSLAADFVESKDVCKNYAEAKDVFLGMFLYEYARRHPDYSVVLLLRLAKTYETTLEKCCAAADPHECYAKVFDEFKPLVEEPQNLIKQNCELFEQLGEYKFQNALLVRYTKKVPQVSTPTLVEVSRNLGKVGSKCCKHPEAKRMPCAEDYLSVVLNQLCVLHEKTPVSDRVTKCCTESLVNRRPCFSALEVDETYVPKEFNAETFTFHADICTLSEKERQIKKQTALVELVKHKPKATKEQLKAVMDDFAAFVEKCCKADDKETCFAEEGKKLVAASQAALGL

Row | critical concentration (exponential increase in optical density) [1] | stability ([2]; 5% HCl (pH 1.1) and brine) | stability in the solid state ([2]; -80 °C to 25 °C, regardless of inert atmosphere) | stable for ([2]; PBS or ammonium acetate - phosphate buffer systems of pH 6.0 to 7.3, 25 °C) | begins to exhibit slow degradation after [2, 5] | stability [2, 5] | taxol release ([2]; sterile water, pH 6.2 phosphate buffered saline, or 5% dextrose, 25°C, period of 11 minutes) | stability when incubated with human plasma ([3]; 37°C, human plasma) | complete conversion of 2 into taxol (1) ([3]; plasma treated with compound 2, methylene chloride extraction) | excreted through the kidneys [4] | Compound | effect on tubulin-microtubule equilibria (tubulin; buffered aqueous environment of the assay, 2 not converted to taxol) | calcium chloride promoted depolymerization is suppressed (tubulin) | Partition Coefficient [octanol]/[water] | microtubule stabilization (tubulin; taxol recovered from human plasma treated with 2) | solubility (physchem) | bind to albumin in sera (albumin)
1 | 400 µM | unstable | completely stable | over 21 days | 4 days | stable for several days | no taxol release is observed | breaks down rapidly | ≤ 10 min | 5% | CC(=O)O[C@H]1C(=O)[C@@]2(C)[C@H]([C@H](OC(=O)c3ccccc3)[C@]3(O)C[C@H](OC(=O)[C@H](Oc4cccc[n+]4C)[C@@H](NC(=O)c4ccccc4)c4ccccc4)C(C)=C1C3(C)C)[C@]1(OC(C)=O)CO[C@@H]1C[C@@H]2O [compound 2, Taxol-2'-MPT] | does not affect the tubulin-microtubule equilibria | not | – | – | – | –
2 | – | – | – | – | – | – | – | – | – | – | CC(=O)O[C@H]1C(=O)[C@@]2(C)[C@H]([C@H](OC(=O)c3ccccc3)[C@]3(O)C[C@H](OC(=O)[C@H](O)[C@@H](NC(=O)c4ccccc4)c4ccccc4)C(C)=C1C3(C)C)[C@]1(OC(C)=O)CO[C@@H]1C[C@@H]2O [taxol, Taxol] | – | suppressed | > 10000 | exhibited the expected microtubule stabilization | < 1.5 µM | ca. 85%
